Laboratory results taken from patent publication US20140357633A1, “COMPOUNDS FOR INHIBITING THE INTERACTION OF BCL2 WITH BINDING PARTNERS” (NOVARTIS AG, priority 2011, published 2014).
pIC50: −log10 of the molar value.

Key:
[1] = target: BCL-2 (binding to BAK peptide) (Homo sapiens, UniProt P10415); test: SPR (Biacore) solution inhibition assay, BCL-2 binding to immobilized BAK peptide; conditions: biotinylated BAK peptide surface, 56 nM BCL-2, 25° C.; range = high and low IC50 values from multiple experiments; read-out: BCL2_SPR IC50 BAK
Chain of BCL-2 (binding to BAK peptide) (P10415 whole entry): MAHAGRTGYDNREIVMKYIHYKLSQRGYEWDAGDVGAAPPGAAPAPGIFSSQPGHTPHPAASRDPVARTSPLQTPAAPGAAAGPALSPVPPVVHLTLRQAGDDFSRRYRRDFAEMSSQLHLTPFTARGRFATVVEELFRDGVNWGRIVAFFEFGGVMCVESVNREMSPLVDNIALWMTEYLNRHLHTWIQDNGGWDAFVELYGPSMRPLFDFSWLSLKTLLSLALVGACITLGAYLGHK
How it was run: (§1)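 Compounds (6-point threefold series, 16 μM to 0.004 nM) preincubated 1 h with 56 nM BCL-2, then injected 60 s over biotinylated peptide captured on streptavidin chips at 25° C. Running buffer: 10 mM HEPES pH 7.4, 150 mM NaCl, 1.25 mM DTT, 3% DMSO, 0.05% polysorbate 20. % inhibition versus BCL-2-only binding gave IC50.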

[2] = target: BCL-2 (binding to BAD peptide) (Homo sapiens, UniProt P10415); test: SPR (Biacore) solution inhibition assay, BCL-2 binding to immobilized BAD peptide; conditions: biotinylated BAD peptide surface, 56 nM BCL-2, 25° C.; range = high and low IC50 values from multiple experiments; read-out: BCL2_SPR IC50 BAD
Chain of BCL-2 (binding to BAD peptide) (P10415 whole entry): as above
How it was run: as §1

Row | SMILES | pIC50 [1] | pIC50 [2]
1 | CCCCN(CCCC)C(=O)c1cc(C)n(-c2ccc(NC(=O)c3sccc3C)cc2C(=O)N2Cc3ccccc3C[C@H]2CO)n1 [Example 81] | 5.83 to 5.98 | 5.84 to 5.85
2 | CCCCN(CCCC)C(=O)c1cc(C)n(-c2ccc(NC(=O)c3ccc(Oc4ccc(F)cc4)cc3)cc2C(=O)N2Cc3ccccc3C[C@H]2CO)n1 [Example 91] | 5.38 to 5.43 | < 4.80
3 | CCCCN(CCCC)C(=O)c1cc(C)n(-c2ccc(NC(=O)CCNC(C)=O)cc2C(=O)N2Cc3ccccc3C[C@H]2CO)n1 [Example 56] | 6.14 | 5.96
4 | CCCCN(CCCC)C(=O)c1cc(C)n(-c2ccc(NC(=O)COc3ccc(Cl)cc3)cc2C(=O)N2Cc3ccccc3C[C@H]2CO)n1 [Example 7] | 6.79 to 6.85 | 6.70
5 | CCCCN(CCCC)C(=O)c1cc(C)n(-c2ccc(NC(=O)c3cccc(Cl)c3O)cc2C(=O)N2Cc3ccccc3C[C@H]2CO)n1 [Example 83] | 7.16 to 7.19 | 7.05 to 7.09
6 | CCCCN(CCCC)C(=O)c1cc(C)n(-c2ccc(NC(=O)CC(C(=O)O)c3ccccc3)cc2C(=O)N2Cc3ccccc3C[C@H]2CO)n1 (stereo partly drawn) [Example 42] | 7.21 to 7.26 | 7.23 to 7.29
7 | CCCCN(CCCC)C(=O)c1cc(C)n(-c2ccc(NC(=O)COc3ccc(OC)cc3)cc2C(=O)N2Cc3ccccc3C[C@H]2CO)n1 [Example 24] | 5.06 to 5.19 | 4.93 to 5.06
8 | CCCCN(CCCC)C(=O)c1cc(C)n(-c2ccc(NC(=O)C(CCNC(C)=O)c3ccccc3)cc2C(=O)C2Cc3ccccc3C[C@H]2CO)n1 (stereo partly drawn) [Example 74] | 7.09 | 7.02
9 | CCCCN(CCCC)C(=O)c1cc(C)n(-c2ccc(NC(=O)CCCc3ccc([N+](=O)[O-])cc3)cc2C(=O)N2Cc3ccccc3C[C@H]2CO)n1 [Example 61] | 6.57 to 6.64 | 6.50 to 6.51
10 | CCCCN(CCCC)C(=O)c1cc(C)n(-c2ccc(NC(=O)c3ccc4c(c3)N=S=N4)cc2C(=O)N2Cc3ccccc3C[C@H]2CO)n1 [Example 84] | 6.02 to 6.06 | 5.98 to 5.99
11 | CCCCN(CCCC)C(=O)c1cc(C)n(-c2ccc(NC(=O)c3cnc(N4CCCC4)nc3)cc2C(=O)N2Cc3ccccc3C[C@H]2CO)n1 [Example 88] | 6.41 to 6.54 | 6.39 to 6.41
12 | CCCCN(CCCC)C(=O)c1cc(C)n(-c2ccc(NC(=O)COc3cccc(OC)c3)cc2C(=O)N2Cc3ccccc3C[C@H]2CO)n1 [Example 22] | 5.46 to 5.58 | 5.46
13 | CCCCN(CCCC)C(=O)c1cc(C)n(-c2ccc(NC(=O)COc3ccccc3)cc2C(=O)N2Cc3ccccc3C[C@H]2CO)n1 [Example 4] | 6.96 to 7.08 | 7.01 to 7.10
14 | CCCCN(CCCC)C(=O)c1cc(C)n(-c2ccc(NC(=O)C(C)(C)c3ccccc3)cc2C(=O)N2Cc3ccccc3C[C@H]2CO)n1 [Example 31] | 6.84 to 6.93 | 6.84 to 6.88
15 | CCCCN(CCCC)C(=O)c1cc(C)n(-c2ccc(NC(=O)CCc3nc(-c4ccccc4)no3)cc2C(=O)N2Cc3ccccc3C[C@H]2CO)n1 [Example 60] | 7.01 to 7.02 | 6.92 to 6.95
16 | CCCCN(CCCC)C(=O)c1cc(C)n(-c2ccc(NC(=O)c3cc(C(C)C)nn3CC)cc2C(=O)N2Cc3ccccc3C[C@H]2CO)n1 [Example 85] | 6.11 to 6.13 | 6.03
17 | CCCCN(CCCC)C(=O)c1cc(C)n(-c2ccc(NC(=O)C3Oc4cc5ccccc5cc4O3)cc2C(=O)N2Cc3ccccc3C[C@H]2CO)n1 [Example 67] | 7.34 to 7.37 | 7.28 to 7.31

Next, values leading:

Row | pIC50 [1] | pIC50 [2] | SMILES
18 | 6.25 to 6.31 | 6.14 | CCCCN(CCCC)C(=O)c1cc(C)n(-c2ccc(NC(=O)c3cc(-c4ccccc4)nn3-c3ccc(F)cc3)cc2C(=O)N2Cc3ccccc3C[C@H]2CO)n1 [Example 120]
19 | 6.75 | 6.57 | CCCCN(CCCC)C(=O)c1cc(C)n(-c2ccc(NC(=O)COC3CCCCC3)cc2C(=O)N2Cc3ccccc3C[C@H]2CO)n1 [Example 128]
20 | 6.97 | 6.86 to 6.88 | CCCCN(CCCC)C(=O)c1cc(C)n(-c2ccc(NC(=O)COc3cc(Cl)c(Cl)cc3Cl)cc2C(=O)N2Cc3ccccc3C[C@H]2CO)n1 [Example 127]
21 | 7.51 | 7.50 to 7.59 | CCCCN(CCCC)C(=O)c1cc(C)n(-c2ccc(NC(=O)c3nn(-c4ccccc4)c(=O)cc3O)cc2C(=O)N2Cc3ccccc3C[C@H]2CO)n1 [Example 94]
22 | 7.12 to 7.15 | 7.04 to 7.06 | CCCCN(CCCC)C(=O)c1cc(C)n(-c2ccc(NC(=O)Cc3ccc(OC)c(Cl)c3)cc2C(=O)N2Cc3ccccc3C[C@H]2CO)n1 [Example 96]
23 | 6.06 to 6.13 | 6.02 to 6.04 | CCCCN(CCCC)C(=O)c1cc(C)n(-c2ccc(NC(=O)c3cc(-c4cccc(O)c4)[nH]n3)cc2C(=O)N2Cc3ccccc3C[C@H]2CO)n1 [Example 134]
24 | 6.79 | 6.79 to 6.85 | CCCCN(CCCC)C(=O)c1cc(C)n(-c2ccc(NC(=O)c3cc4c(OC)c(OC)ccc4[nH]3)cc2C(=O)N2Cc3ccccc3C[C@H]2CO)n1 [Example 149]
25 | 7.01 to 7.02 | 6.91 to 6.92 | CCCCN(CCCC)C(=O)c1cc(C)n(-c2ccc(NC(=O)Cc3ccc(OC)c(OC)c3)cc2C(=O)N2Cc3ccccc3C[C@H]2CO)n1 [Example 136]
26 | 6.33 to 6.40 | 6.30 to 6.33 | CCCCN(CCCC)C(=O)c1cc(C)n(-c2ccc(NC(=O)c3ccccc3Nc3ccccc3[N+](=O)[O-])cc2C(=O)N2Cc3ccccc3C[C@H]2CO)n1 [Example 146]
27 | 6.57 | 6.40 to 6.44 | CCCCN(CCCC)C(=O)c1cc(C)n(-c2ccc(NC(=O)c3cn4ccsc4n3)cc2C(=O)N2Cc3ccccc3C[C@H]2CO)n1 [Example 102]
28 | 7.11 to 7.20 | 6.99 to 7.05 | CCCCN(CCCC)C(=O)c1cc(C)n(-c2ccc(NC(=O)CNC(=O)c3cccnc3)cc2C(=O)N2Cc3ccccc3C[C@H]2CO)n1 [Example 125]
29 | 6.61 | 6.47 to 6.48 | CCCCN(CCCC)C(=O)c1cc(C)n(-c2ccc(NC(=O)c3cc(OC)cc([N+](=O)[O-])c3OC)cc2C(=O)N2Cc3ccccc3C[C@H]2CO)n1 [Example 132]
30 | 6.18 to 6.25 | 6.15 to 6.17 | CCCCN(CCCC)C(=O)c1cc(C)n(-c2ccc(NC(=O)[C@H](C)c3ccccc3)cc2C(=O)N2Cc3ccccc3C[C@H]2CO)n1 [Example 113]
31 | 6.22 to 6.23 | 6.19 to 6.21 | CCCCN(CCCC)C(=O)c1cc(C)n(-c2ccc(NC(=O)c3[nH]c4ccccc4c3-c3ccccc3)cc2C(=O)N2Cc3ccccc3C[C@H]2CO)n1 [Example 148]
32 | 6.59 to 6.60 | 6.42 to 6.46 | CCCCN(CCCC)C(=O)c1cc(C)n(-c2ccc(NC(=O)C3CC(=O)N(CCc4ccc(OC)c(OC)c4)C3)cc2C(=O)N2Cc3ccccc3C[C@H]2CO)n1 (stereo partly drawn) [Example 104]
33 | 5.87 to 5.90 | 5.56 to 5.58 | CCCCN(CCCC)C(=O)c1cc(C)n(-c2ccc(NC(=O)c3csc(-c4cccc(Cl)c4Cl)n3)cc2C(=O)N2Cc3ccccc3C[C@H]2CO)n1 [Example 144]
34 | 7.30 to 7.31 | 7.21 to 7.22 | CCCCN(CCCC)C(=O)c1cc(C)n(-c2ccc(NC(=O)COc3ccc4ccccc4c3)cc2C(=O)N2Cc3ccccc3C[C@H]2CO)n1 [Example 126]
35 | 6.54 to 6.56 | 6.46 to 6.50 | CCCCN(CCCC)C(=O)c1cc(C)n(-c2ccc(NC(=O)c3cccc(-c4ccccc4F)c3)cc2C(=O)N2Cc3ccccc3C[C@H]2CO)n1 [Example 140]
36 | 6.28 to 6.30 | 6.28 to 6.32 | CCCCN(CCCC)C(=O)c1cc(C)n(-c2ccc(NC(=O)c3cc(C)[nH]n3)cc2C(=O)N2Cc3ccccc3C[C@H]2CO)n1 [Example 109]
